Data taken from patent US7521418B2, “Use of a polyene macrolide antifungal agent in combination with a glycopeptide antibacterial agent” (Theravance, Inc., priority 2003, dated 2009).

System: C. albicans ATCC 24433
Test: Checkerboard MIC assay, FICI
Assay type: cell-based, Candida albicans
Conditions: combination with Compound 1; C. albicans ATCC 24433
Text: The following assay was used to determine the minimum inhibitory concentration (MIC) and fractional inhibitory concentration index (FICI) for combinations of an antifungal agent and a glycopeptide antibacterial agent. This assay and methods for calculating FICI are well known in the art. See, for example, Eliopoulos, E. G. and R. Moellering, Jr. “Antimicrobial Combinations” in Antibiotics in Laboratory Medicine, edited by V. Lorian, 4th Ed., Williams & Wilkins, Baltimore, MD, pp. 330-396 (1996); […] et al., Antimicrobial Agents and Chemotherapy 47(4):1416-1418 (2003); or […] et al., Antimicrobial Agents and Chemotherapy 46(10):3323-3326 (2002). Procedures, protocols, supplies and equipment used in this assay follow the recommendations approved and published by the National Committee for Clinical Laboratory Standards (NCCLS), Wayne, Pa. as described in NCCLS 2003, “Reference Method for Broth Dilution Antimicrobial Susceptibility Tests for Bacteria that Grow Aerobically; Approved Standard” (NCCLS document M7-A6); NCCLS 2002, “Reference Method for Broth Dilution Antifungal Susceptibility Tests of Filamentous Fungi that Grow Aerobically; Approved Standard” (NCCLS document M38-A); and NCCLS 2002 “Reference Method for Broth Dilution Antifungal Susceptibility Tests of Yeast; Approved Standards-2nd Edition” (NCCLS document M27-A2). Using a checkerboard method, a 2-fold dilution 100× final concentration master plate was prepared using a 96-well U-shape microtiter plate and an appropriate solvent. In the “checkerboard” method, a microtiter plate is divided into “columns” in which each well in the column contains the same amount of an antifungal agent (Compound A) being diluted along the x-axis, and “rows” in which each well in the row contains the same amount of a glycopeptide antibacterial agent (Compound B) being diluted on the y-axis. Also included is a row (or column) for Compound A or B alone. The dilutions used in the checkerboard are exponential (by powers of two). The result is that each well in the microtiter plate contains a unique concentration of the two compounds being tested. […] After mixing, 100 μL of 2× drug combinations were distributed into 96-well microtiter plates. […] Compound A was not added to Column 12, so Column 12 contained only Compound B. Compound B was diluted from row A starting at 6,400 μg/mL down to row G (100 μg/mL). Wells in Row A contained a final concentration of 64 μg/mL of Compound B; Row B contained a final concentration of 32 μg/mL of Compound B; Row C contained a final concentration of 16 μg/mL of Compound B; etc. Compound B was not added to Row H, so Row H only contained Compound A. […] The MIC of the glycopeptide antibacterial agent determined from this experiment was used in FIC calculations. […] RPMI-1640 without sodium bicarbonate media (GIBCO-BRL, Carlsbad, Calif.), an enriched media formulated for mammalian cells, was used according to the NCCLS guidelines for yeast and filamentous fungi susceptibility testing. The medium was buffered with 0.165 M 3-[N-Morpholino]propanesulfonic acid (MOPS) supplemented with 20 g/L glucose and pH adjusted to 7.0 with hydrogen chloride. Sabouraud Dextrose Agar ([…] plates, and Potato Dextrose Agar (PDA) plates were purchased from Hardy Diagnostic (Santa Maria, Calif.). Yeast cultures were started from -80° C. frozen stock streaked on […] incubated at 35° C. under aerobic conditions for 24 h. The […] in the refrigerator for up to 2 weeks and used regularly as a starting culture. About 24 to 48 h before each assay was run, yeasts were streaked on SDA plates for isolated colonies. To prepare the inoculum, from one to four colonies were resuspended in 5 mL of saline, and vortexed for 15 sec. […] For most yeast and mold cultures, the optical density (OD) of the suspension was adjusted to 0.11 in saline to provide 0.4×10^6 CFU/mL. However, for Fusarium moniliforme and Pseudallescheria boydii the OD of the suspension was adjusted to OD=0.17 to provide 0.4×10^6 CFU/mL. […]

Row | Compound | FICI
1 | C[C@@H]1[C@H](O)[C@@H](C)/C=C/C=C/C=C/C=C/C=C/C=C/C=C/[C@H](O[C@@H]2O[C@H](C)[C@@H](O)[C@H](N)[C@@H]2O)C[C@@H]2O[C@](O)(C[C@@H](O)C[C@@H](O)[C@H](O)CC[C@@H](O)C[C@@H](O)CC(=O)O[C@H]1C)C[C@H](O)[C@H]2C(=O)O [Amphotericin B] | 0.19
2 | C[C@@H]1[C@H](O)[C@@H](C)/C=C/C=C/CC/C=C/C=C/C=C/C=C/C(O[C@H]2O[C@H](C)[C@@H](O)[C@H](N)[C@@H]2O)CC2O[C@](O)(CC(O)C(O)CCC(O)CC(O)CC(O)CC(=O)O[C@H]1C)CC(O)C2C(=O)O (some centres unmarked) [Nystatin] | 0.31
